Test results: patent US11712434B2, “Compound having anti-cancer effect, and preparation method therefor and use thereof” (3D MEDICINES (BEIJING) CO., LTD., priority 2016, dated 2023)

Assays:
Assay in all cases: Cell proliferation assay (Alamar Blue)
Format in all cases: cell-based
22RV1 = 22RV1 tumor cell line; 6 days culture
Procedure, shortened: (§1)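 Log-phase cells seeded at line-optimised density, compound added after 4 h at 37 °C, 5% CO2, as 9-point 3.16-fold dilutions from 100 or 30 µM top concentration, duplicate wells. After 6 days, AlamarBlue fluorescence (ex 560/em 590 nm); IC50 from four-parameter nonlinear regression of % inhibition.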

AN3CA = AN3CA tumor cell line; 6 days culture
Procedure, shortened: as §1

HEPG2 = HEPG2 liver cancer cell line; 6 days culture
Procedure, shortened: as §1

HUH6 = HUH6 liver cancer cell line; 6 days culture
Procedure, shortened: as §1

JHH1 = JHH1 liver cancer cell line; 6 days culture
Procedure, shortened: as §1

JHH2 = JHH2 liver cancer cell line; 6 days culture
Procedure, shortened: as §1

JHH6 = JHH6 liver cancer cell line; 6 days culture
Procedure, shortened: as §1

JHH7 = JHH7 liver cancer cell line; 6 days culture
Procedure, shortened: as §1

K562 = K562 tumor cell line; 6 days culture
Procedure, shortened: as §1

LNCAP-clone-FGC = LNCAP-clone-FGC tumor cell line; 6 days culture
Procedure, shortened: as §1

Li-7 = Li-7 liver cancer cell line; 6 days culture
Procedure, shortened: as §1

MDA-MB-231 = MDA-MB-231 tumor cell line; 6 days culture
Procedure, shortened: as §1

MDA-MB-435S = MDA-MB-435S tumor cell line; 6 days culture
Procedure, shortened: as §1

MFM-223 = MFM-223 tumor cell line; 6 days culture
Procedure, shortened: as §1

MG63 = MG63 tumor cell line; 6 days culture
Procedure, shortened: as §1

NCI-H1648 = NCI-H1648 tumor cell line; 6 days culture
Procedure, shortened: as §1

NCI-H2170 = NCI-H2170 tumor cell line; 6 days culture
Procedure, shortened: as §1

NCI-H661 = NCI-H661 tumor cell line; 6 days culture
Procedure, shortened: as §1

SK-HEP-1 = SK-HEP-1 liver cancer cell line; 6 days culture
Procedure, shortened: as §1

SNU182 = SNU182 liver cancer cell line; 6 days culture
Procedure, shortened: as §1

SNU354 = SNU354 liver cancer cell line; 6 days culture
Procedure, shortened: as §1

SNU387 = SNU387 liver cancer cell line; 6 days culture
Procedure, shortened: as §1

SNU475 = SNU475 liver cancer cell line; 6 days culture
Procedure, shortened: as §1

SNU739 = SNU739 liver cancer cell line; 6 days culture
Procedure, shortened: as §1

SNU761 = SNU761 liver cancer cell line; 6 days culture
Procedure, shortened: as §1

TE-15 = TE-15 tumor cell line; 6 days culture
Procedure, shortened: as §1

TE-6 = TE-6 tumor cell line; 6 days culture
Procedure, shortened: as §1

SMILES | IC50 (22RV1) [µM] | IC50 (AN3CA) [µM] | IC50 (HEPG2) [µM] | IC50 (HUH6) [µM] | IC50 (JHH1) [µM] | IC50 (JHH2) [µM] | IC50 (JHH6) [µM] | IC50 (JHH7) [µM] | IC50 (K562) [µM] | IC50 (LNCAP-clone-FGC) [µM] | IC50 (Li-7) [µM] | IC50 (MDA-MB-231) [µM] | IC50 (MDA-MB-435S) [µM] | IC50 (MFM-223) [µM] | IC50 (MG63) [µM] | IC50 (NCI-H1648) [µM] | IC50 (NCI-H2170) [µM] | IC50 (NCI-H661) [µM] | IC50 (SK-HEP-1) [µM] | IC50 (SNU182) [µM] | other results
Cc1ccc(F)c(NC(=O)Nc2ccc(-c3cccc4[nH]nc(NC(=O)CCCCCCCCCCCNC(=O)C[C@H](N)C(=O)O)c34)cc2)c1 [Compound 12] | 95.6 | 3.84 | 9.27 | > 100 | > 100 | > 100 | 85.8 | 67.2 | > 100 | 70.5 | 90.4 | 79.5 | > 100 | 53.4 | > 100 | > 100 | 59.2 | > 100 | > 100 | > 100 | IC50 (SNU354): 97.3 µM; IC50 (SNU387): > 100 µM; IC50 (SNU475): > 100 µM; IC50 (SNU739): > 100 µM; IC50 (SNU761): > 100 µM; IC50 (TE-15): > 100 µM; IC50 (TE-6): > 100 µM
Cc1ccc(F)c(NC(=O)Nc2ccc(-c3cccc4[nH]nc(NC(=O)CCCCCCCCCCCNC(=O)C[C@H](N)C(=O)N[C@@H](CCC(=O)O)C(=O)O)c34)cc2)c1 [Compound 7] | > 100 | 3.84 | 9.53 | > 100 | > 100 | > 100 | > 100 | 63.4 | > 100 | 95.5 | > 100 | > 100 | > 100 | 88.3 | > 100 | > 100 | 48 | > 100 | > 100 | > 100 | IC50 (SNU354): > 100 µM; IC50 (SNU387): > 100 µM; IC50 (SNU475): > 100 µM; IC50 (SNU739): > 100 µM; IC50 (SNU761): > 100 µM; IC50 (TE-15): > 100 µM; IC50 (TE-6): > 100 µM
